#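 These data come from cells grown in 96-well plates and exposed to compound for 48 hours at five concentrations. Here, GI50 denotes the concentration required for 50% inhibition of growth. TGI: concentration producing complete growth inhibition.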
# Tests used:
# Assay in all cases: NCI-60 cell line screen, 48 h
# KM12 colon = test system: KM12 colon
# SK-MEL-28 melanoma = test system: SK-MEL-28 melanoma
# OVCAR-5 ovarian = test system: OVCAR-5 ovarian
# T-47D breast = test system: T-47D breast
# UO-31 renal = test system: UO-31 renal
# HL-60(TB) leukemia = test system: HL-60(TB) leukemia
# MOLT-4 leukemia = test system: MOLT-4 leukemia
# HOP-62 NSCLC = test system: HOP-62 NSCLC
# A498 renal = test system: A498 renal
# SK-MEL-5 melanoma = test system: SK-MEL-5 melanoma
# SF-539 CNS = test system: SF-539 CNS
# HT29 colon = test system: HT29 colon
# NCI-H226 lung = test system: NCI-H226 lung
# MDA-MB-231 breast = test system: MDA-MB-231 breast
# SR leukemia = test system: SR leukemia
# SK-MEL-2 melanoma = test system: SK-MEL-2 melanoma
# NCI/ADR-RES ovarian = test system: NCI/ADR-RES ovarian
# MALME-3M melanoma = test system: MALME-3M melanoma
# SW-620 colon = test system: SW-620 colon
# SF-295 CNS = test system: SF-295 CNS
# SN12C renal = test system: SN12C renal
# OVCAR-8 ovarian = test system: OVCAR-8 ovarian
# OVCAR-4 ovarian = test system: OVCAR-4 ovarian
# MDA-MB-435 = test system: MDA-MB-435
# SK-OV-3 ovarian = test system: SK-OV-3 ovarian
# MDA-MB-468 breast = test system: MDA-MB-468 breast
# COLO 205 colon = test system: COLO 205 colon
# NCI-H460 lung = test system: NCI-H460 lung
# K-562 leukemia = test system: K-562 leukemia
# MCF7 breast = test system: MCF7 breast
# NCI-H23 lung = test system: NCI-H23 lung
# M14 melanoma = test system: M14 melanoma
# UACC-62 melanoma = test system: UACC-62 melanoma
# NCI-H522 lung = test system: NCI-H522 lung
# EKVX NSCLC = test system: EKVX NSCLC
# DU-145 prostate = test system: DU-145 prostate
# PC-3 prostate = test system: PC-3 prostate
# BT-549 breast = test system: BT-549 breast
# RXF 393 renal = test system: RXF 393 renal
# IGROV1 ovarian = test system: IGROV1 ovarian
# U251 CNS = test system: U251 CNS
# A549 NSCLC = test system: A549 NSCLC
# TK-10 renal = test system: TK-10 renal
# SNB-75 CNS = test system: SNB-75 CNS
# ACHN renal = test system: ACHN renal
# HOP-92 NSCLC = test system: HOP-92 NSCLC
# SNB-19 CNS = test system: SNB-19 CNS
# CAKI-1 renal = test system: CAKI-1 renal
# OVCAR-3 ovarian = test system: OVCAR-3 ovarian
# LOX IMVI melanoma = test system: LOX IMVI melanoma
# HCT-15 colon = test system: HCT-15 colon
# UACC-257 melanoma = test system: UACC-257 melanoma
# HS 578T breast = test system: HS 578T breast
# HCC-2998 colon = test system: HCC-2998 colon
# RPMI-8226 leukemia = test system: RPMI-8226 leukemia
# SF-268 CNS = test system: SF-268 CNS
smiles,measurement,setting,value
CC(=O)Nc1ccc(-c2cn(-c3cccc(C(=O)Nc4ccc(Cl)c(C(F)(F)F)c4)c3)nn2)cn1,GI50,KM12 colon,1.81 µM
same,TGI,KM12 colon,6.37 µM
same,GI50,SK-MEL-28 melanoma,1.35 µM
same,TGI,SK-MEL-28 melanoma,2.82 µM
same,GI50,OVCAR-5 ovarian,1.93 µM
same,TGI,OVCAR-5 ovarian,4.86 µM
same,GI50,T-47D breast,2.47 µM
same,TGI,T-47D breast,7.93 µM
same,GI50,UO-31 renal,1.64 µM
same,TGI,UO-31 renal,3.54 µM
same,GI50,HL-60(TB) leukemia,0.824 µM
same,TGI,HL-60(TB) leukemia,> 100 µM
same,GI50,MOLT-4 leukemia,2.62 µM
same,TGI,MOLT-4 leukemia,7.99 µM
same,GI50,HOP-62 NSCLC,1.67 µM
same,TGI,HOP-62 NSCLC,3.49 µM
same,GI50,A498 renal,2.9 µM
same,TGI,A498 renal,5.46 µM
same,GI50,SK-MEL-5 melanoma,1.9 µM
same,TGI,SK-MEL-5 melanoma,4.3 µM
same,GI50,SF-539 CNS,1.44 µM
same,TGI,SF-539 CNS,2.82 µM
same,GI50,HT29 colon,1.43 µM
same,TGI,HT29 colon,3.09 µM
same,GI50,NCI-H226 lung,1.87 µM
same,TGI,NCI-H226 lung,3.78 µM
same,GI50,MDA-MB-231 breast,1.09 µM
same,TGI,MDA-MB-231 breast,2.39 µM
same,GI50,SR leukemia,1.86 µM
same,TGI,SR leukemia,> 100 µM
same,GI50,SK-MEL-2 melanoma,1.65 µM
same,TGI,SK-MEL-2 melanoma,3.78 µM
same,GI50,NCI/ADR-RES ovarian,3.5 µM
same,TGI,NCI/ADR-RES ovarian,17.8 µM
same,GI50,MALME-3M melanoma,0.559 µM
same,TGI,MALME-3M melanoma,1.95 µM
same,GI50,SW-620 colon,1.57 µM
same,TGI,SW-620 colon,3.29 µM
same,GI50,SF-295 CNS,1.51 µM
same,TGI,SF-295 CNS,2.91 µM
same,GI50,SN12C renal,1.77 µM
same,TGI,SN12C renal,3.49 µM
same,GI50,OVCAR-8 ovarian,2.02 µM
same,TGI,OVCAR-8 ovarian,4.66 µM
same,GI50,OVCAR-4 ovarian,2.53 µM
same,TGI,OVCAR-4 ovarian,7.39 µM
same,GI50,MDA-MB-435,1.39 µM
same,TGI,MDA-MB-435,3.05 µM
same,GI50,SK-OV-3 ovarian,2.01 µM
same,TGI,SK-OV-3 ovarian,5.17 µM
same,GI50,MDA-MB-468 breast,1.45 µM
same,TGI,MDA-MB-468 breast,3.02 µM
same,GI50,COLO 205 colon,1.47 µM
same,TGI,COLO 205 colon,3.45 µM
same,GI50,NCI-H460 lung,1.5 µM
same,TGI,NCI-H460 lung,3.05 µM
same,GI50,K-562 leukemia,1.32 µM
same,TGI,K-562 leukemia,5.89 µM
same,GI50,MCF7 breast,1.82 µM
same,TGI,MCF7 breast,4.12 µM
same,GI50,NCI-H23 lung,1.52 µM
same,TGI,NCI-H23 lung,2.98 µM
same,GI50,M14 melanoma,1.12 µM
same,TGI,M14 melanoma,3.46 µM
same,GI50,UACC-62 melanoma,1.29 µM
same,TGI,UACC-62 melanoma,2.79 µM
same,GI50,NCI-H522 lung,1.71 µM
same,TGI,NCI-H522 lung,3.6 µM
same,GI50,EKVX NSCLC,1.89 µM
same,TGI,EKVX NSCLC,3.92 µM
same,GI50,DU-145 prostate,2.83 µM
same,TGI,DU-145 prostate,8.43 µM
same,GI50,PC-3 prostate,1.83 µM
same,TGI,PC-3 prostate,5.21 µM
same,GI50,BT-549 breast,1.69 µM
same,TGI,BT-549 breast,3.5 µM
same,GI50,RXF 393 renal,1.69 µM
same,TGI,RXF 393 renal,3.5 µM
same,GI50,IGROV1 ovarian,1.7 µM
same,TGI,IGROV1 ovarian,3.36 µM
same,GI50,U251 CNS,1.85 µM
same,TGI,U251 CNS,3.59 µM
same,GI50,A549 NSCLC,1.86 µM
same,TGI,A549 NSCLC,3.86 µM
same,GI50,TK-10 renal,2.3 µM
same,TGI,TK-10 renal,4.68 µM
same,GI50,SNB-75 CNS,1.61 µM
same,TGI,SNB-75 CNS,4.47 µM
same,GI50,ACHN renal,1.93 µM
same,TGI,ACHN renal,4.04 µM
same,GI50,HOP-92 NSCLC,1.58 µM
same,TGI,HOP-92 NSCLC,3.6 µM
same,GI50,SNB-19 CNS,2.24 µM
same,TGI,SNB-19 CNS,4.7 µM
same,GI50,CAKI-1 renal,1.78 µM
same,TGI,CAKI-1 renal,3.54 µM
same,GI50,OVCAR-3 ovarian,1.92 µM
same,TGI,OVCAR-3 ovarian,3.62 µM
same,GI50,LOX IMVI melanoma,1.39 µM
same,TGI,LOX IMVI melanoma,2.72 µM
same,GI50,HCT-15 colon,2.02 µM
same,TGI,HCT-15 colon,4.28 µM
same,GI50,UACC-257 melanoma,1.56 µM
same,TGI,UACC-257 melanoma,3.5 µM
same,GI50,HS 578T breast,2.03 µM
same,TGI,HS 578T breast,7.01 µM
same,GI50,HCC-2998 colon,1.87 µM
same,TGI,HCC-2998 colon,4.02 µM
same,GI50,RPMI-8226 leukemia,2.5 µM
same,TGI,RPMI-8226 leukemia,34.7 µM
same,GI50,SF-268 CNS,2.3 µM
same,TGI,SF-268 CNS,5.73 µM
